This note sets out measurements from patent US5656638A, “Telomerase inhibitors” (Geron Corporation, priority 1995, dated 1997).

In this assay the target is T1, telomerase (Homo sapiens, UniProt O14746).
T1 construct: placing cells, tissues, or preferably a cellular extract or other preparation containing telomerase in contact with; endogenous in cells
Briefly: telomerase inhibition, IC50 (Table 1). The format is biochemical. From the text: One method used to identify compounds of the invention that inhibit telomerase activity involves placing cells, tissues, or preferably a cellular extract or other preparation containing telomerase in contact with several known concentrations of a test compound in a buffer compatible with telomerase activity. […] Other methods for determining the inhibitory concentration of a compound of the invention against telomerase can be employed as will be apparent to those of skill in the art based on the disclosure herein.
With the above-described methods, IC50 values for several of the compounds of the present invention were determined. The values reported in Table 1 below are only approximate values; more exact IC50 values can be obtained by repetitive testing.

[1] abbreviates: Table 1, approximate values only, read-out: IC50.
Setting [2] is: summary of Table 1, approximate IC50 values, read-out: IC50 (bound stated in text).

The structures appear in SMILES notation. “Also recorded” adds a separate entry of the source. Read-outs that look alike come from different tables or passages of the source.

T1 sequence (O14746 whole entry): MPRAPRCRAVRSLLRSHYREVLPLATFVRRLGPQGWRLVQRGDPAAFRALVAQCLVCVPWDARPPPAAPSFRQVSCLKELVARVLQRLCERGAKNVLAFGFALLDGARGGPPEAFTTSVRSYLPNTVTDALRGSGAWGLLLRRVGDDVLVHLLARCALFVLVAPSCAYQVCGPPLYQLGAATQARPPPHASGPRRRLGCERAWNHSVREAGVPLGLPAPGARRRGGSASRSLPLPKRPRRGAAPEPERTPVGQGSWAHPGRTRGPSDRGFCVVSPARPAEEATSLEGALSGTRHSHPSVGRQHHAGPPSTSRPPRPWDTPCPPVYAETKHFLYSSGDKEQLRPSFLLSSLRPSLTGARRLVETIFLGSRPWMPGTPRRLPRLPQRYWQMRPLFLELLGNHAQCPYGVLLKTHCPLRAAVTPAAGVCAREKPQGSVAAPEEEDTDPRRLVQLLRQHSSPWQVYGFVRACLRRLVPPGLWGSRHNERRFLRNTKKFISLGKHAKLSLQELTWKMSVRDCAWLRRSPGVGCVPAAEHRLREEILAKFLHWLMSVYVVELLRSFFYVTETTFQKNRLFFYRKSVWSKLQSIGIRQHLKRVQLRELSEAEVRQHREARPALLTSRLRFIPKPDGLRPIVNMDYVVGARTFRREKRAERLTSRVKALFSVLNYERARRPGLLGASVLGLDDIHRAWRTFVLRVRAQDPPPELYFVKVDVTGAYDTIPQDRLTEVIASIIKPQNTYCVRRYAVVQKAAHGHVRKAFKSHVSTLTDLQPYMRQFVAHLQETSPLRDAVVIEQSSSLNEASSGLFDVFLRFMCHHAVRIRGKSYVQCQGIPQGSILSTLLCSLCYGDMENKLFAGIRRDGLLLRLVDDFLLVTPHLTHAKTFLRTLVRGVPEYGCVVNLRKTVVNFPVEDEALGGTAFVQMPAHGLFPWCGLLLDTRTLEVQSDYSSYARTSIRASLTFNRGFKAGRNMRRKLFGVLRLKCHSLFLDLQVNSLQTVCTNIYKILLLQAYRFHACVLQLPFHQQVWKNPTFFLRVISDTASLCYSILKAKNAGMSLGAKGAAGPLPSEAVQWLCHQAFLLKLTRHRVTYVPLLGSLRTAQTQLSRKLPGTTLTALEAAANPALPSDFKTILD
T1 sequence (O60832 whole entry partner): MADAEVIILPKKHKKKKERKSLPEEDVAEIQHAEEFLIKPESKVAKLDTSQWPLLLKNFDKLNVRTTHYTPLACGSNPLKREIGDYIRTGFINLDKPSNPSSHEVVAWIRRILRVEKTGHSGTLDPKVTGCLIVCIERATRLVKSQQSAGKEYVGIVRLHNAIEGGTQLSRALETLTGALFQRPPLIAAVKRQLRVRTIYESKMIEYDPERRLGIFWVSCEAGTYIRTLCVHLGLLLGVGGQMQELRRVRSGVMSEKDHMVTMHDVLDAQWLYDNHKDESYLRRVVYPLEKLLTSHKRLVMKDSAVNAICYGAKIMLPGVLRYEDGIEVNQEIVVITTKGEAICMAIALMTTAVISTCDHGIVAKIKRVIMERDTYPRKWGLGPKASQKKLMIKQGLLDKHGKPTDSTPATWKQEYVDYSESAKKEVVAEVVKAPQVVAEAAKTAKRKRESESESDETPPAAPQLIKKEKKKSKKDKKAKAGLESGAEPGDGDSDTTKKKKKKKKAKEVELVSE
T1 sequence (Q9NPE3 whole entry partner): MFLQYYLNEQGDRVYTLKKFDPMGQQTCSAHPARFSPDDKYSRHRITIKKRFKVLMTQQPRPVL
T1 sequence (Q9NX24 whole entry partner): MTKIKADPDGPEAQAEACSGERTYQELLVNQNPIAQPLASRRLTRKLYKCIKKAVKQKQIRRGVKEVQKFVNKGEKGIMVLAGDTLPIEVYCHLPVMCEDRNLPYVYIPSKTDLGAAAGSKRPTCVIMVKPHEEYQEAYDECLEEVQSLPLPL
T1 sequence (Q9NY12 whole entry partner): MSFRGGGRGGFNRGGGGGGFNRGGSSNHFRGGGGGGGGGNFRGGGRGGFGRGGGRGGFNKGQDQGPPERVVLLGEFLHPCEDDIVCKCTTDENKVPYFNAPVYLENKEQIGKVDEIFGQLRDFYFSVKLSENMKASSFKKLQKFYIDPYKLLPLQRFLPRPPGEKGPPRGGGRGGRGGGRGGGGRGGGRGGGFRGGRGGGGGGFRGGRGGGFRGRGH

As to `Nc1c(C(=O)c2ccc(Br)cc2)sc2nc(C=O)ccc12` [Compound VII], the “anti-telomerase activity (in words)” value is “particularly good anti-telomerase activity”. Further, under setting [1], the concentration for half-maximal inhibition (IC50) came to 48 µM.

Take `Nc1c(C(=O)c2ccc(Cl)c(Cl)c2)oc2nc(C=O)ccc12` [Compound XIV]: the IC50 under setting [1] worked out at 31 µM.

`Nc1c(C(=O)c2ccc(Br)cc2)sc2nc(C=NC3C4CC5CC(C4)CC3C5)ccc12` (centres unmarked) [Compound III]: the “anti-telomerase activity (in words)” value is “strong telomerase inhibitors”. The 50% inhibitory concentration (IC50) under setting [1] amounted to 4 µM. Besides, the IC50 under setting [2] was less than 30 µM.

On to `Nc1c(C(=O)c2ccc(Cl)cc2Cl)sc2nc(C=O)ccc12` [Compound VI], for which the “anti-telomerase activity (in words)” value is listed as “particularly good anti-telomerase activity; also recorded: strong telomerase inhibitors”. The IC50 under setting [1] worked out at 29 µM. For the same molecule, the IC50 under setting [2] was less than 30 µM.

As for `Cc1cc(N=Cc2ccc3c(N)c(-c4ccc(Cl)c(Cl)c4)oc3n2)n[nH]1` [Compound XV], the “anti-telomerase activity (in words)” value is on record as “good anti-telomerase activity”. The IC50 under setting [1] came to 49 µM.

On to `CC(C)(C)c1ccc(-c2noc(-c3sc4nc(C=O)ccc4c3N)n2)cc1` [Compound X], for which the half-maximal inhibitory concentration (IC50) under setting [1] was 42 µM.

Take `Nc1c(C(=O)c2ccc(Cl)c(Cl)c2)sc2nc(C=NC3C4CC5CC(C4)CC3C5)ccc12` (centres unmarked) [Compound V]: the “anti-telomerase activity (in words)” value is “strong telomerase inhibitors”. For the same molecule, under setting [1], the half-inhibitory concentration (IC50) was determined as 30 µM. Also, under setting [2], the 50% inhibitory concentration (IC50) is less than 30 µM.

Turning to `Nc1c(C(=O)c2ccc(Cl)c(Cl)c2)sc2nc(C=O)ccc12` [Compound VIII], the “anti-telomerase activity (in words)” value is “particularly good anti-telomerase activity; also recorded: strong telomerase inhibitors”. In addition, the IC50 under setting [1] worked out at 28 µM. Besides, under setting [2], the IC50 was less than 30 µM.

Turning to `Nc1c(-c2ncc(C(F)(F)F)cc2Cl)sc2nc(C=O)ccc12` [Compound IX], the “anti-telomerase activity (in words)” value is “strong telomerase inhibitors”. The 50% inhibitory concentration (IC50) under setting [1] was found to be 24 µM. Moreover, the IC50 under setting [2] was less than 30 µM.

For `Nc1c(C(=O)c2ccc(Cl)c(Cl)c2)sc2nc(C=NNc3ccc(Cl)cc3)ccc12` [Compound XII], the “anti-telomerase activity (in words)” value is on record as “good anti-telomerase activity; also recorded: strong telomerase inhibitors”. Moreover, the IC50 under setting [1] came to 21 µM. Also, under setting [2], the 50% inhibitory concentration (IC50) was less than 30 µM.

Regarding `Cc1ccc(NN=Cc2ccc3c(N)c(C(=O)c4ccc(Br)cc4)sc3n2)cc1` [Compound XIII], the “anti-telomerase activity (in words)” value is “good anti-telomerase activity”. The IC50 under setting [1] came to 18 µM.

For `Nc1c(C(=O)c2ccc(Cl)cc2Cl)sc2nc(C=NC3C4CC5CC(C4)CC3C5)ccc12` (centres unmarked) [Compound IV], under setting [1], the IC50 worked out at 26 µM.

With `Nc1c(C(=O)c2ccc(Cl)c(Cl)c2)sc2nc(C=NNc3ccccc3)ccc12` [Compound XI], the “anti-telomerase activity (in words)” value is “good anti-telomerase activity”. In addition, the half-inhibitory concentration (IC50) under setting [1] amounted to 42 µM.
